Results: patent publication US20090298708A1, “2'-DEOXY-2'-FLUORO-BETA-D-ARABINONUCLEOSIDE 5'-TRIPHOSPHATES AND THEIR USE IN ENZYMATIC NUCLEIC ACID SYNTHESIS” (priority 2006, published 2009)

Columns and labels:
[1] = target: T1, DV DNA polymerase (Pyrococcus sp., UniProt Q51334, D141A/DEL493-1029/E143A); assay: Dropout assay, fidelity of incorporation by DV; assay type: biochemical, Pyrococcus species GB-D; settings: 30 min reaction time, 25 μM triphosphates, 55° C., template A: PF41, G: PF43, T: PF21, C: PF23
T1 construct: purchased New England Biolabs; host or cells: E. coli
Method: (§1) FIG. 11A illustrates the fidelity of 2′F-araATP incorporation on a DNA template PF41 by DV and 9N DNA polymerases. Reaction conditions: 0.8 unit DV and 9N, 25 μM triphosphates at 55° C. in 30 μL reaction volume; incubation time: 30 min. Group 1 & 5: dNTPs; 2 & 6: dropout of dATP; 3 & 7: 2′F-araNTPs, 4 & 8: dropout of 2′F-araATP; 27mer control DNA is PF39.
(§2) FIG. 11B illustrates the fidelity of 2′F-araGTP incorporation on DNA template PF43 by DV and 9N DNA polymerases. Reaction conditions: primer/template (1:1 molar ratio): 100 nM; 0.4 μL (0.8 unit) DV, 9N, 25 μM triphosphate concentration at 55° C. in 30 μL reaction volume. Reaction time for dNTPs (group 1, 5) was 30 min and others were shown above. Group 1 & 5: dNTPs; 2 & 6: drop out dGTP (i.e. dTTP, dCTP and dATP), 3 & 7: 2TF-araNTPs, 4 & 8: drop out 2′F-araGTP; lane P is the template PF41 as the full-length product control; PF39 is a 27-nt DNA control. All samples were analyzed by 12% denaturing PAGE.
(§3) FIG. 12A illustrates the fidelity of 2′F-araTTP incorporation by DV and 9N DNA polymerases on a DNA template PF21. Reaction conditions: 100 nM primer/template (1:1 molar ratio); 0.4 μL (0.8 unit) DV or 9N, 25 μM triphosphate concentration at 55° C. in 30 μL reaction volume. Reaction time for dNTPs (group 1, 5) was 30 min and others were shown above. Groups 1 & 5: dNTPs; 2 & 6: drop out dTTP; 3 & 7: 2′F-araNTPs; 4 & 8: drop out 2′F-araTTPs. in B: group 1 & 5: dNTPs; 2 & 6: drop out dCTP; 3 & 7: 2′F-araNTPs; 4 & 8: drop out 2′F-araCTPs; PF39 is a 27-nt DNA control. All samples were analyzed by 12% denaturing PAGE.
(§4) FIG. 12B illustrates the fidelity study of 2′F-araCTP incorporation by DV and 9N DNA polymerases on a DNA template PF23. Reaction conditions: 100 nM primer/template (1:1 molar ratio); 0.4 μL (0.8 unit) DV or 9N, 25 μM triphosphate concentration at 55° C. in 30 μL reaction volume. Reaction time for dNTPs (groups 1, 5) was 30 min and others were shown above. Groups 1 & 5: dNTPs; 2 & 6: drop out dCTP; 3 & 7: 2′F-araNTPs; 4 & 8: drop out 2′F-araCTPs; PF39 is a 27-nt DNA control. All samples were analyzed by 12% denaturing PAGE.
(§5) “Dropout assays” (Ichida et al. (2005) J. Am. Chem. Soc. 127:2802-2803) were conducted to assess the fidelity of 2′F-araNTP incorporation (each of 2′F-araATP, 2′F-araCTP, 2′F-araGTP and 2′F-araTTP) by various DNA polymerases (FIGS. 11-14). For example, the 2′F-araNTP of interest is removed from the pool, and the ensuing synthesis on DNA template (e.g. PF21, PF23, PF41, PF43) assessed in comparison with a control reaction containing all four 2′F-araNTPs. For comparison, dropout experiments containing dNTPs are run in parallel. Full-length DNA and FANA products are obtained when all four dNTPs (group 1 and 5) and 2′F-araNTPs (groups 3 and 7) were available, however, some pausing may occur during synthesis of the arabinose modified oligomers. Apparent fidelity was calculated according to the equation:
(§6) 1−[(% full-length−2′F-araNTP)/(% full-length+2′F-araNTP)]
(§7) at 30 min reaction time (sample equation for dNTP values). >99% means that the full-length product was not detectable in our dropout assays.
(§8) “Dropout assays” (Ichida et al. (2005) J. Am. Chem. Soc. 127:2802-2803) were conducted to assess apparent fidelity of 2′F-araNTP incorporation by DV and 9N. In one of these assays, 2′F-araATP was removed from the pool, and the ensuing synthesis assessed in comparison with a control reaction containing all four 2′F-araNTPs. For comparison, dropout experiments containing dNTPs were run in parallel (FIGS. 11-14). Full-length DNA and FANA products were obtained when all four dNTPs (group 1 and 5) and 2′F-araNTPs (groups 3 and 7) were available, although some pausing was evident during synthesis of the arabinose modified oligomers.

[2] = test system: DNA polymerases; assay: Primer extension assays, statement for all enzymes studied; assay type: biochemical; settings: DNA template PF24; 9N, HIV, MMLV, DV
[3] = target: T2, 9N DNA polymerase (Thermococcus sp., UniProt Q56366, E143D); assay: Dropout assay, fidelity of incorporation by 9N; assay type: biochemical, Thermococcus species (strain 9° N-7); settings: 30 min reaction time, 25 μM triphosphates, 55° C., template A: PF41, G: PF43, T: PF21, C: PF23
T2 construct: purchased New England Biolabs; host or cells: E. coli
Method: as §1, §2, §3, §4, §5, §6, §7, §8

Compound	% Apparent Fidelity, 2′F-araNTP [1]	order of incorporation efficiency [2]	% Apparent Fidelity, 2′F-araNTP [3]	% Apparent Fidelity, dNTP [1] [%]	% Apparent Fidelity, dNTP [3] [%]
Nc1ccn([C@@H]2O[C@H](COP(=O)(O)OP(=O)(O)OP(=O)(O)O)[C@@H](O)[C@@H]2F)c(=O)n1 [2′F-araCTP, 1-(2-deoxy-2-fluoro-β-D-arabinofuranosyl)cytosine 5′-triphosphate]	C: 50%	dCTP=2′F-rCTP>2′F-araCTP >>rCTP	C: 43%		
Cc1cn([C@@H]2O[C@H](COP(=O)(O)OP(=O)(O)OP(=O)(O)O)[C@@H](O)[C@@H]2F)c(=O)[nH]c1=O [2′F-araTTP, 1-(2-deoxy-2-fluoro-β-D-arabino-furanosyl)thymine 5′-triphosphate]	T: 3%		T: 76%		
Nc1ccn([C@@H]2O[C@H](COP(=O)(O)OP(=O)(O)OP(=O)(O)O)[C@@H](O)[C@H]2F)c(=O)n1 [2′F-rCTP, 1-(2-deoxy-2-fluoro-β-D-ribofuranosyl) cytosine 5′-triphosphate, reference compound]		dCTP=2′F-rCTP>2′F-araCTP >>rCTP			
Nc1ccn([C@H]2C[C@H](O)[C@@H](COP(=O)(O)OP(=O)(O)OP(=O)(O)O)O2)c(=O)n1 [dCTP]		dCTP=2′F-rCTP>2′F-araCTP >>rCTP		3	82
Cc1cn([C@H]2C[C@H](O)[C@@H](COP(=O)(O)OP(=O)(O)OP(=O)(O)O)O2)c(=O)[nH]c1=O [dTTP, reference compound]				19	32
